According to patent publication US6352992B1, “Endothelin antagonist and beta receptor blocking agent as combined preparations” (Abbott Laboratories, priority 1997, dated 2002):

System: normotensive awake dogs
Assay: Mean arterial blood pressure in normotensive awake dogs after oral administration
Assay type: in vivo, beagle dogs
Conditions: Compound A 10 mg/kg, bucindolol 0.1 mg/kg; for mean arterial blood pressure, change with respect to the initial value: combination 10 + 0.1 mg/kg, mean values
Procedure: In a crossover design, the test substance was administered orally as a capsule to chronically instrumented male beagle dogs (approx 14 kg). The capsule either contained nothing (control N=5), compound A (10 mg/kg, N=10), bucindolol (0.1 mg/kg; N=5) or the combination bucindolol + compound A (0.1+10 mg/kg; N=5). In between the individual administrations, a washing phase of at least one week was observed. The systolic and the diastolic blood pressure were measured using a Statham Transducer P 23 Db, from which the mean arterial blood pressure was calculated. The blood pressure was recorded for 6 h (MI^2, Modular Instrumente, USA).
Development of the mean arterial blood pressure (mmHg, change with respect to the initial value) in normotensive awake dogs after oral administration of different substances, what is shown are the mean values

CC(C)(Cc1c[nH]c2ccccc12)NCC(O)COc1ccccc1C#N (stereo not shown) [Bucindolol, bucindolol]
mean arterial blood pressure, change with respect to the initial value (1h after oral capsule): −0.8 mmHg
mean arterial blood pressure, change with respect to the initial value (2h after oral capsule): −3.8 mmHg
mean arterial blood pressure, change with respect to the initial value (3h after oral capsule): −3.4 mmHg
mean arterial blood pressure, change with respect to the initial value (4h after oral capsule): −3.8 mmHg
mean arterial blood pressure, change with respect to the initial value (5h after oral capsule): −3.8 mmHg
mean arterial blood pressure, change with respect to the initial value (6h after oral capsule): −1.4 mmHg
effect on blood pressure, in words (oral capsule, recorded for 6 h, combination 0.1+10 mg/kg): does not decrease
